Results on 8 compounds are retold here after ChEMBL document CHEMBL1201862, “PubChem BioAssay data set” (2004).

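Exposure lasted 48 hours, with cells grown in 96-well plates and compounds tested at five concentrations. The concentration for 50% growth inhibition is given as GI50.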 Activity calls are given as the source filed them. Rule as the data show it: active = GI50 up to about 1.1 µM and inactive = higher. Some results are limits rather than exact numbers.

Among the test systems are SK-MEL-28; UACC-257; MDA-MB-435; HL-60; SNB-75; SNB-19; UO-31; HCT-116; SK-MEL-5; Malme-3M; SW-620; DU-145; OVCAR-3; MCF7; MDA-N; ACHN; CCRF-CEM; KM12; T47D; 786-0.
Common to all, as to assay: NCI-60 cell line screen, 48 h

Regarding `Nc1nc(Cl)c(N)c(NCC2(CO)CCCC2)n1`, the GI50 is > 100 µM (inactive) in the assay with SK-MEL-28; 71.6 µM (inactive) in the assay on UACC-257; 80 µM (inactive) in the assay with MDA-MB-435; > 100 µM (inactive) with HL-60; > 100 µM (inactive) in the assay on SNB-75; > 100 µM (inactive) in the assay with SNB-19. Further, the GI50 was > 100 µM (inactive) in the assay with UO-31; > 100 µM (inactive) in the assay with HCT-116; 30.8 µM (inactive) in the assay on SK-MEL-5; > 100 µM (inactive) in the assay with Malme-3M; > 100 µM (inactive) in the assay on SW-620; > 100 µM (inactive) with DU-145. Also, the GI50 with OVCAR-3 is 62.1 µM (inactive); in the assay on MCF7, 90.6 µM (inactive); with MDA-N, > 100 µM (inactive); with ACHN it was > 100 µM (inactive); in the assay on CCRF-CEM, > 100 µM (inactive); with KM12, > 100 µM (inactive). Further, the figures for the GI50 with T47D and in the assay on 786-0 were 0.826 µM (active) and > 100 µM (inactive), respectively.
As for `N#Cc1nc(C#N)n(S(=O)(=O)c2ccccc2)c1NS(=O)(=O)c1ccccc1`, the GI50 with SK-MEL-28 was > 100 µM (inactive); in the assay on UACC-257, > 100 µM (inactive); in the assay on MDA-MB-435, > 100 µM (inactive); with HL-60, > 100 µM (inactive); in the assay on SNB-75 it was > 65.3 µM (inactive); with SNB-19, > 100 µM (inactive). In addition, the GI50 with UO-31 was 27 µM (inactive); with HCT-116, > 100 µM (inactive); in the assay on SK-MEL-5, > 100 µM (inactive); with Malme-3M, > 100 µM (inactive); in the assay with SW-620 it was > 100 µM (inactive); in the assay on DU-145, > 100 µM (inactive). In addition, the GI50 in the assay with OVCAR-3, in the assay on MCF7, in the assay with MDA-N, with ACHN, with CCRF-CEM and with KM12 was > 100 µM (inactive) in each case. In addition, the GI50 in the assay with T47D and with 786-0 was > 100 µM (inactive) throughout.
Consider `CC(=O)NNc1nc(C)c(C(/C=C/c2ccc([N+](=O)[O-])cc2)=N/NC(N)=S)s1`, for which the GI50 in the assay on SK-MEL-28, with UACC-257, with MDA-MB-435, in the assay with HL-60, in the assay on SNB-75 and with SNB-19 was > 100 µM (inactive) each time. The GI50 with UO-31, in the assay with HCT-116, in the assay on SK-MEL-5, in the assay with Malme-3M, in the assay with SW-620 and in the assay with DU-145 was > 100 µM (inactive) in each case. Further, the GI50 in the assay on OVCAR-3, in the assay with MCF7, in the assay on MDA-N, in the assay on ACHN, in the assay on CCRF-CEM and in the assay with KM12 was > 100 µM (inactive) each time. The GI50 in the assay with T47D and with 786-0 was > 100 µM (inactive) in each case.
Turning to `CC(=O)OCCn1cnc2c(NCC=C(C)C)ncnc21`, the GI50 in the assay with SK-MEL-28, with UACC-257, in the assay on MDA-MB-435, in the assay on HL-60, in the assay on SNB-75 and in the assay with SNB-19 was > 100 µM (inactive) throughout. The GI50 with UO-31, with HCT-116, in the assay with SK-MEL-5, with Malme-3M, in the assay with SW-620 and with DU-145 was > 100 µM (inactive) each time. Also, the GI50 in the assay on OVCAR-3, in the assay with MCF7, in the assay with MDA-N, in the assay with ACHN, in the assay on CCRF-CEM and in the assay on KM12 was > 100 µM (inactive) each time. Also, the GI50 with T47D and with 786-0 was > 100 µM (inactive) throughout.
For the compound `O=C1N[C@H]2c3c(Cl)sc(Cl)c3/C(=N/O)[C@H]2O1`, the GI50 was > 100 µM (inactive) in the assay on SK-MEL-28; > 100 µM (inactive) in the assay with UACC-257; > 100 µM (inactive) in the assay on MDA-MB-435; 18.7 µM (inactive) with HL-60; > 100 µM (inactive) with SNB-75; > 100 µM (inactive) in the assay on SNB-19. The GI50 in the assay with UO-31 is > 100 µM (inactive); in the assay on HCT-116 it was 80.7 µM (inactive); in the assay with SK-MEL-5, > 100 µM (inactive); in the assay with Malme-3M, > 100 µM (inactive); in the assay with SW-620 it was > 100 µM (inactive); in the assay with DU-145 it was > 100 µM (inactive). The GI50 with OVCAR-3 is > 100 µM (inactive); in the assay on MCF7, > 100 µM (inactive); in the assay on MDA-N, > 100 µM (inactive); with ACHN, > 100 µM (inactive); in the assay with CCRF-CEM, 52.2 µM (inactive); in the assay on KM12, > 100 µM (inactive). For the same compound, the GI50 in the assay on T47D and with 786-0 was > 100 µM (inactive) in each case.
In the case of `Cc1cc(Cl)ccc1Nc1sc(C(=O)c2cc3cc(Cl)ccc3o2)c(N)c1C#N`, the GI50 in the assay with SK-MEL-28 was > 28.1 µM (inactive); in the assay with UACC-257 it was > 61.7 µM (inactive); in the assay on MDA-MB-435, 8.71 µM (inactive); in the assay on HL-60, > 80.5 µM (inactive); in the assay on SNB-75, 3.48 µM (inactive); in the assay with SNB-19 it was 6.89 µM (inactive). The GI50 in the assay on UO-31 was 34.1 µM (inactive); with HCT-116, 18.4 µM (inactive); with SK-MEL-5 it was 3.99 µM (inactive); in the assay with Malme-3M, 80.5 µM (inactive); in the assay on SW-620, 15.2 µM (inactive); in the assay on DU-145 it was 18.8 µM (inactive). The GI50 in the assay on OVCAR-3 was 12.5 µM (inactive); in the assay with MCF7, 8.38 µM (inactive); with MDA-N it was 79.3 µM (inactive); in the assay on ACHN, 15.4 µM (inactive); in the assay with CCRF-CEM, > 27.1 µM (inactive); with KM12, 6.15 µM (inactive). For the same compound, the GI50 in the assay with T47D was 16.6 µM (inactive); with 786-0, 3.83 µM (inactive).
As for `C=CCn1c(=O)ccn(/C(=C/C(=O)OCC)C(=O)OCC)c1=O`, the GI50 is 15.2 µM (inactive) with SK-MEL-28; 15.2 µM (inactive) in the assay on UACC-257; 12.8 µM (inactive) with MDA-MB-435; 1.76 µM (inactive) in the assay on HL-60; 16.1 µM (inactive) in the assay on SNB-75; 29.4 µM (inactive) in the assay with SNB-19. In addition, the GI50 was 14.9 µM (inactive) with UO-31; 7.1 µM (inactive) in the assay with HCT-116; 15.1 µM (inactive) in the assay on SK-MEL-5; 11 µM (inactive) in the assay on Malme-3M; 2.18 µM (inactive) with SW-620; 21.7 µM (inactive) in the assay on DU-145. The GI50 in the assay on OVCAR-3 was 5.66 µM (inactive); with MCF7, 3.94 µM (inactive); with MDA-N it was 15.5 µM (inactive); with ACHN, 3.72 µM (inactive); with CCRF-CEM it was 2.08 µM (inactive); with KM12, 17.5 µM (inactive). In addition, the GI50 is 5.13 µM (inactive) in the assay on T47D and 3.48 µM (inactive) with 786-0.
Regarding `N#CC1CCCC2SC(F)(F)C(F)(F)C12` (stereo not given), the GI50 is > 100 µM (inactive) with SK-MEL-28; > 100 µM (inactive) in the assay on UACC-257; > 100 µM (inactive) in the assay with MDA-MB-435; 19.7 µM (inactive) in the assay with HL-60; > 88.3 µM (inactive) in the assay with SNB-75; > 100 µM (inactive) in the assay with SNB-19. The GI50 in the assay with UO-31, in the assay on HCT-116, in the assay on SK-MEL-5, with Malme-3M, in the assay on SW-620 and in the assay with DU-145 was > 100 µM (inactive) throughout. For the same compound, the GI50 with OVCAR-3 is > 100 µM (inactive); with MCF7, > 100 µM (inactive); in the assay with MDA-N, > 100 µM (inactive); in the assay with ACHN it was > 100 µM (inactive); in the assay with CCRF-CEM, 26.4 µM (inactive); in the assay with KM12, > 100 µM (inactive). The GI50 in the assay with T47D and with 786-0 was > 100 µM (inactive) in each case.
